In patent US20090088364A1, “Pharmaceutical composition useful for the treatment of invasive pulmonary aspergillosis” (priority 2004, published 2009):
Entries after “also recorded” stand apart in the source; their conditions may differ.

Tests used:
A. fumigatus [1] = assay: Fungal hyphae density in lung sections (histopathology) of IPA mice; assay type: in vivo, BALB/c mice; settings: for fungal hyphae density compared to untreated IPA mice: FIG. 3, histopathology of lung sections
Description: (§1) The survival rates of the MBL treated and untreated mice were monitored for 15 days (FIG. 1). Among the rest of the mice left in each group, two mice were sacrificed each on 4th and 7th day after fungal exposure and lung tissues were collected for histopathology and counting the colony forming units of the fungus (CFUs). For estimating the pulmonary fungal load and hyphae density of the mice, lungs were aseptically removed from each group of mice sacrificed on the 4th and 7th day, after the spore challenge. A portion of the lung tissue (10 mg) was homogenized with a mechanical homogenizer for 1 min in sterile PBS. The suspension was serially diluted 2-fold and incubated in triplicates on Sabouraud Agar (SDA) plates at 37° C. A. fumigatus colonies were counted after 24 hrs incubation and the values represent average±standard deviation of six data points (three from each dilution). The number of Colony forming units (CFUs) that appeared on the plates corresponds to the pulmonary fungal load of different groups. […] The other portion of the lung was kept in 10% formalin for histopathological studies of the lung sections.
For visualization of the fungal hyphae in the lungs of the mice, a portion of the lungs collected from the mice sacrificed on 4th and 7th day from treated and untreated groups after spore challenge and trimmed of extraneous tissue was kept in 10% formalin for histopathological studies and stored at 4° C. The tissue sections, made using a microtome and stained with hematoxylin and eosin, were examined at the magnification of 40×.

A. fumigatus [2] = assay: Pulmonary fungal load (CFU counts in lung homogenate) in IPA mice; assay type: in vivo, BALB/c mice; settings: for fungal load: description
Description: as §1
For estimating the pulmonary fungal load and hyphae density of the mice, lungs were aseptically removed from each group of mice sacrificed on the 4th and 7th day, after the spore challenge. A portion of the lung tissue (10 mg) was homogenized with a mechanical homogenizer for 1 min in sterile PBS. The suspension was serially diluted 2-fold and incubated in triplicate on Sabauraud Agar (SDA) plates at 37° C. A. fumigatus colonies were counted after 24 hrs incubation and the values represent average±standard deviation of six data points (three from each dilution). The number of Colony forming units (CFUs) that appeared on the plates corresponds to the pulmonary fungal load of different groups.

A. fumigatus [3] = assay: Survival of immunosuppressed IPA mice monitored for 15 days; assay type: in vivo, BALB/c mice; settings: for survival / survival rate: IPA mice
Procedure: For preparation of animal models of invasive pulmonary aspergillosis, BALB/c mice were divided into various experimental and control groups and subgroups as shown in Table I.
The BALB/c mice were immunosuppressed by three intradermal injections of 2.5 mg of hydrocortisone acetate (Wycort) per 20 g mouse per day 1 day before, the day of, and the day after spore challenge.
On the day of spore challenge (day 0), mice were lightly anesthesized with ether and 10^8 spores of A. fumigatus in 50 μl of sterile saline were administered intranasally in the groups of IPA mice, while 50 μl of saline alone was administered to the untreated control mice. The MBL-treated control and IPA mice received 1 μg of MBL in 50 μl of saline per mouse on day 1, and the groups of untreated control and untreated IPA mice received 50 μl of saline alone intranasally on day 1.
as §1
The animal model of invasive pulmonary aspergillosis is prepared by known methods of the immunosuppression of the mice (Allen et al, 1994) followed by exposure to A. fumigatus spores. The mice were immunosuppressed by three intradermal injections of 2.5 mg of hydrocortisone acetate (Wycort) per 20 g of mouse per day one day before, the day of, and the day after spore challenge (day −1, 0, +1).
On the day of spore challenge (day 0), mice were lightly anesthesized with ether and 10^8 spores of A. fumigatus in 50 μl of sterile saline were administered intranasally in the groups of IPA mice, while 50 μl of saline alone was administered to the untreated control mice.
The administration of different concentrations of purified human rMBL (1-5 µg/mice) in saline intranasally to different groups of mice is described in Table I. The animal models of invasive pulmonary aspergillosis and their respective controls were given treatment with rMBL and amphotericin B. The amphotericin B treated mice acted as the positive control, since amphotericin B is a standard known antifungal agent.
(§2) The 1 µg rMBL-treated control and IPA mice received 1 μg of rMBL in 50 μl of saline per mouse on day 1. Similarly, 3 μg rMBL-treated control and IPA mice received 3 μg of rMBL in 50 μl of saline per mouse on day 1 and 5 µg rMBL-treated control and IPA mice received 5 μg of rMBL in 50 μl of saline per mouse on day 1. The AmB-treated control and IPA mice received AmB (134.6 μg) only on day 1. The groups of untreated control and untreated IPA mice received 50 μl of saline without rMBL intranasally on day 1.
(§3) Different groups of mice were monitored for 15 days for survival and thereby their survival rate was calculated.

[4] = Survival of immunosuppressed control mice that received no spores; assay type: in vivo, BALB/c mice
Procedure: as §2, §3

A. fumigatus conidia = settings: in vitro, purified human MBL; cited from earlier work
[5] = Example 6, PBS pH 7.2, treated with AmB or rMBL
[6] = Example 7, PBS pH 7.4, treated with AmB or rMBL
[7] = Example 8, TBS pH 7.6, treated with AmB or rMBL
[8] = Example 9, TBS pH 8.0, treated with AmB or rMBL
[9] = Example 6, PBS pH 7.2, rMBL 1-5 μg/mice
[10] = Example 8, TBS pH 7.6, rMBL 1-5 μg/mice
[11] = Example 9, TBS pH 8.0, rMBL 1-5 ug/mice

C[C@@H]1[C@H](O)[C@@H](C)/C=C/C=C/C=C/C=C/C=C/C=C/C=C/[C@H](O[C@@H]2O[C@H](C)[C@@H](O)[C@H](N)[C@@H]2O)C[C@@H]2O[C@](O)(C[C@@H](O)C[C@@H](O)[C@H](O)CC[C@@H](O)C[C@@H](O)CC(=O)O[C@H]1C)C[C@H](O)[C@H]2C(=O)O [AmB, Amphotericin B, reference compound]
fungal hyphae density compared to untreated IPA mice (A. fumigatus [1]): decreases; also recorded: drastic decrease
CFUs in the lung homogenates (A. fumigatus [2]; Example 7, PBS pH 7.4, 4th day after spore challenge, AmB 134.6 μg): 5.65±0.07 CFUs×10^6/gm of lung tissue
fungal load (A. fumigatus [2]; FIG. 2, amphotericin B treated IPA mice): 5.65±0.07 CFUs×10^6/gm of lung tissue
survival (A. fumigatus [3]; Example 6, PBS pH 7.2, AmB 134.6 μg on day 1): 80%
survival (A. fumigatus [3]; Example 7, PBS pH 7.4, AmB 134.6 μg on day 1): 80%
survival (A. fumigatus [3]; Example 8, TBS pH 7.6, AmB 134.6 μg on day 1): 80%
survival (A. fumigatus [3]; Example 9, TBS pH 8.0, AmB 134.6 μg on day 1): 80%
survival rate (A. fumigatus [3]; FIG. 1, amphotericin B (134.6 μg) on day 1): 80%
survival of control mice [4, 5]: 100%
survival of control mice [4, 6]: 100%
survival of control mice [4, 7]: 100%
survival of control mice [4, 8]: 100%

rMBL: purified human recombinant mannan-binding lectin (MBL) protein, in solution form produced by recombinant technology
fungal hyphae density in the lungs compared to untreated IPA mice (A. fumigatus [1]; Example 6, PBS pH 7.2): decrease
fungal hyphae density in the lungs compared to untreated IPA mice (A. fumigatus [1]; Example 7, PBS pH 7.4, FIG. 3): decrease
fungal hyphae density in the lungs compared to untreated IPA mice (A. fumigatus [1]; Example 8, TBS pH 7.6): decrease
fungal hyphae density in the lungs compared to untreated IPA mice (A. fumigatus [1]; Example 9, TBS pH 8.0): decrease
fungal hyphae density compared to untreated IPA mice (A. fumigatus [1]; listed as MBL): decreases; also recorded: drastic decrease
pulmonary fungal load compared to untreated IPA mice (A. fumigatus [2]; [9]): reduction
CFUs in the lung homogenates (A. fumigatus [2]; Example 7, PBS pH 7.4, 4th day after spore challenge, 1 μg rMBL): 4.6±0.5 CFUs×10^6/gm of lung tissue
CFUs in the lung homogenates (A. fumigatus [2]; Example 7, PBS pH 7.4, 4th day after spore challenge, 3 μg rMBL): 4.2±0.4 CFUs×10^6/gm of lung tissue
CFUs in the lung homogenates (A. fumigatus [2]; Example 7, PBS pH 7.4, 4th day after spore challenge, 5 μg rMBL): 6.4±0.5 CFUs×10^6/gm of lung tissue
pulmonary fungal load compared to untreated IPA mice (A. fumigatus [2]; Example 7, PBS pH 7.4, rMBL 1-5 μg/mice): reduction
pulmonary fungal load compared to untreated IPA mice (A. fumigatus [2]; [10]): reduction
pulmonary fungal load compared to untreated IPA mice (A. fumigatus [2]; [11]): reduction
pulmonary fungal load, CFU counts (A. fumigatus [2]; FIG. 2, 4th day after spore challenge, 3 µg MBL treated IPA mice): 4.2±0.4 CFU counts per gram of the lung tissue
fungal load (A. fumigatus [2]; FIG. 2, 1 µg MBL treated IPA mice): 4.6±0.5 CFUs×10^6/gm of lung tissue
fungal load (A. fumigatus [2]; FIG. 2, 3 µg MBL treated IPA mice): 4.2±0.4 CFUs×10^6/gm of lung tissue
survival (A. fumigatus [3]; Example 6, PBS pH 7.2, 1 μg rMBL intranasally day 1): 80%
survival (A. fumigatus [3]; Example 6, PBS pH 7.2, 3 μg rMBL intranasally day 1): 80%
survival (A. fumigatus [3]; Example 6, PBS pH 7.2, 5 μg rMBL intranasally day 1): 40%
percentage of survival, change in treated IPA mice (A. fumigatus [3]; [9]): increase
survival (A. fumigatus [3]; Example 7, PBS pH 7.4, 1 μg rMBL intranasally day 1): 80%
survival (A. fumigatus [3]; Example 7, PBS pH 7.4, 5 μg rMBL intranasally day 1): 40%
percentage of survival, change in treated IPA mice (A. fumigatus [3]; Example 7, PBS pH 7.4, rMBL 1-5 μg/mice, FIG. 1): increase
survival (A. fumigatus [3]; Example 8, TBS pH 7.6, 1 μg rMBL intranasally day 1): 80%
survival (A. fumigatus [3]; Example 8, TBS pH 7.6, 5 μg rMBL intranasally day 1): 40%
percentage of survival, change in treated IPA mice (A. fumigatus [3]; [10]): increase
survival (A. fumigatus [3]; Example 9, TBS pH 8.0, 1 μg rMBL intranasally day 1): 80%
survival (A. fumigatus [3]; Example 9, TBS pH 8.0, 5 μg rMBL intranasally day 1): 40%
percentage of survival, change in treated IPA mice (A. fumigatus [3]; [11]): increase
survival rate (A. fumigatus [3]; FIG. 1, 1 µg MBL intranasally on day 1): 80%
survival rate (A. fumigatus [3]; FIG. 1, 3 µg MBL intranasally on day 1): 80%
survival of control mice [4, 5]: 100%
survival of control mice [4, 6]: 100%
survival of control mice [4, 7]: 100%
survival of control mice [4, 8]: 100%
concentration range that most effectively mediates the killing of the fungus (A. fumigatus conidia): 1 to 5 µg/mL
